Key:
TLR7 = biological target: T1, TLR7 (Homo sapiens, UniProt Q9NYK1); test: Human PBMC cell-based assay, TLR7 agonist GS-986 stimulation, cytokine (IL-6 and IFNα) readout; conditions: human PBMCs, GS-986 400 nM, 6 hours; Table 26; read-out: TLR-7 EC50
T1 construct: lymphocytes, monocytes and dendritic cells that express TLR7, TLR8 and TLR9; endogenous in cells; host or cells: human PBMCs from healthy donors
T1 sequence (Q9NYK1 27-1049): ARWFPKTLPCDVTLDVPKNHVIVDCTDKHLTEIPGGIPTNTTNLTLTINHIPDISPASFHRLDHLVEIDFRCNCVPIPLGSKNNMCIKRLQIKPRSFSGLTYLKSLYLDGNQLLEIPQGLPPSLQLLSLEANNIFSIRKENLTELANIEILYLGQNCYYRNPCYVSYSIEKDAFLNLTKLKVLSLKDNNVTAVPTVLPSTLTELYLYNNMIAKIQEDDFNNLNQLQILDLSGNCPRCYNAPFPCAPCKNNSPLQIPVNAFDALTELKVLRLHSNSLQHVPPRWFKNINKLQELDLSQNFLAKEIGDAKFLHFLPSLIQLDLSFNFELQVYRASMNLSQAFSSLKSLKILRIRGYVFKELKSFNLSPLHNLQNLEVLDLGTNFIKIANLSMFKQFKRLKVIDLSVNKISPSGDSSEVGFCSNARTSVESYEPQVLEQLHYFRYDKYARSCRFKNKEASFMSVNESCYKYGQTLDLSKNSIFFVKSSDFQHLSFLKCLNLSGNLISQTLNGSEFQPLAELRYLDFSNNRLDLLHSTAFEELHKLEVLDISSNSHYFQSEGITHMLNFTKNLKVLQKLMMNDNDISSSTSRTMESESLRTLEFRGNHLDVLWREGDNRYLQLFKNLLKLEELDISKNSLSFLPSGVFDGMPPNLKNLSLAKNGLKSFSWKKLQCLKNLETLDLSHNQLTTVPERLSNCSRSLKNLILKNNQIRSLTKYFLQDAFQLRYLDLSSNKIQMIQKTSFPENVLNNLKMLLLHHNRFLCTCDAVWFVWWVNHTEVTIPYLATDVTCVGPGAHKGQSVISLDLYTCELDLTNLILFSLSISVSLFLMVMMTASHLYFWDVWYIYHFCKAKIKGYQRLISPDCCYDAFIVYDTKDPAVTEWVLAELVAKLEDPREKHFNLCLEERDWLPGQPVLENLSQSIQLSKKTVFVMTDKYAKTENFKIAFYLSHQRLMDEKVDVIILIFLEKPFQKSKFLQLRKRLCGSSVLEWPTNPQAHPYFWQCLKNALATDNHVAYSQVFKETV
Source text: (§1) Human peripheral blood mononuclear cells (PBMCs) consist of lymphocytes, monocytes and dendritic cells that express TLR7, TLR8 and TLR9. These cells respond to TLR7, TLR8 and TLR9 ligand stimulation and produce cytokines and chemokines in vitro and in vivo. Human PBMCs are therefore suitable to be used in a cell-based assay to assess the in vitro potency of a TLR 7, 8, and/or 9 antagonist. The result is expected to be more translatable to the pharmacodynamics response in vivo than cell line-based assays.
(§2) Cryopreserved human PBMCs from healthy donors were thawed and resuspended in RPMI-1640 media with L-glutamine (Corning) supplemented with 10% Fetal Bovine Serum (Hyclone) and 1X Penicillin-Streptomycin (Corning). After counting, the cell density was adjusted to 2 million cells/ml and incubated for 1 hour at 37° C., 5% CO2 for recovery. Following the recovery, the cells were plated by adding 50p per well (100,000 cells) to 384-well cell culture plates (Greiner) containing 250nl of test antagonists in 100% DMSO per well, in a 10 points dose response in quadruplicates. PBMCs were incubated in the presence of test antagonists for one hour at 37° C., 5% CO2 before being stimulated with a TLR7 or TLR9 agonist. GS-986 (Gilead Sciences) was used as the TLR7 agonist at a final concentration of 400 nM. ODN-2216 (InvivoGen) was used as the TLR9 agonist at a final concentration of 3μM. PBMCs were incubated in the presence of the test antagonist and the TLR7 (or TLR9) agonist for an additional 6 hours at 37° C., 5% CO2. At the end of the incubation, the cell culture plates were centrifuged at 500 g for 5 min, and the cell culture supernatant was collected. The level of cytokines (IL-6 and IFNα) in the supernatant was measured by electrochemiluminescence immunoassays (Mesoscale Discovery) following manufacturer's recommended protocols. The level of cytokine measured was plotted against the test antagonist concentration and fitted to a sigmoidal function to determine the EC50, which are shown below in Table 26.

TLR9 = biological target: T2, TLR9 (Homo sapiens, UniProt Q9NR96); test: Human PBMC cell-based assay, TLR9 agonist ODN-2216 stimulation, cytokine (IL-6 and IFNα) readout; conditions: human PBMCs, ODN-2216 3 μM, 6 hours; Table 26; read-out: TLR-9 EC50
T2 construct: lymphocytes, monocytes and dendritic cells that express TLR7, TLR8 and TLR9; endogenous in cells; host or cells: human PBMCs from healthy donors
T2 sequence (Q9NR96 26-1032): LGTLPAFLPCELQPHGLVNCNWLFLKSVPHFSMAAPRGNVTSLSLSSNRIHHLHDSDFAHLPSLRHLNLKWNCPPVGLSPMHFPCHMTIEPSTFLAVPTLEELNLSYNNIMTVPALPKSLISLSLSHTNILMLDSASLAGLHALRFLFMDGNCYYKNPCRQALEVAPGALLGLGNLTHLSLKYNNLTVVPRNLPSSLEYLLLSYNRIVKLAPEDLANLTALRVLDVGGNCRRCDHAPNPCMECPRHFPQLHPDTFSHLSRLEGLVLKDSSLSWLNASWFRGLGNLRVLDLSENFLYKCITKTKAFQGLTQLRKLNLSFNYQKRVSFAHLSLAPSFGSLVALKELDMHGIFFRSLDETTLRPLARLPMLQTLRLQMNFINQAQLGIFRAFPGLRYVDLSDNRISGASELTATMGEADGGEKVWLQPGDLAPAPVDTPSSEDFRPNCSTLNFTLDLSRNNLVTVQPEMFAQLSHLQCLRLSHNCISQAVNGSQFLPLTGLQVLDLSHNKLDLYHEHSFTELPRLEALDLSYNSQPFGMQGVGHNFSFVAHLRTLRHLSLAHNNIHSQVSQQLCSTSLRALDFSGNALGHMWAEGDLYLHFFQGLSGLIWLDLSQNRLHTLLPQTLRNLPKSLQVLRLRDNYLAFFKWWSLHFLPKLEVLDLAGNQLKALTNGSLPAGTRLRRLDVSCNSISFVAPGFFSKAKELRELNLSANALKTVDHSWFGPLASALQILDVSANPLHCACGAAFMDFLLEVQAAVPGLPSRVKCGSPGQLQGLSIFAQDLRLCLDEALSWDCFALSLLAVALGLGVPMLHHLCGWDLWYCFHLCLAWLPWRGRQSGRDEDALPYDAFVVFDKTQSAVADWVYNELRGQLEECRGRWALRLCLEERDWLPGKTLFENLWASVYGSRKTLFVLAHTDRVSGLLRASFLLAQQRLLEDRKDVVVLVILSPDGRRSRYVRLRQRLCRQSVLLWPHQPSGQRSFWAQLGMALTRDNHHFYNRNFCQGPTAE
Source text: as §1, §2

| SMILES | EC50 (TLR7) [µM] | EC50 (TLR9) [µM] |
| --- | --- | --- |
| Cc1cc(-c2[nH]c3cc(-c4nc(C5CCNCC5)cs4)ccc3c2C)cc(C)n1 [Example 186, 2-(2-(2,6-dimethylpyridin-4-yl)-3-methyl-1H-indol-6-yl)-4-(piperidin-4-yl)thiazole] | 0.121 | 0.225 |
| Cc1cc(-c2[nH]c3cc(-c4ccc(C(=O)N5CC[C@@H](N)C5)cc4)ccc3c2C)cc(C)n1 [Example 124] | 0.0555 | 0.111 |
| Cc1cc(-c2[nH]c3cc(-c4ccc5ncn(C6CCNCC6)c5c4)ccc3c2C)cc(C)n1 [Example 166] | 0.144 | 0.522 |
| Cc1cc(-c2[nH]c3cc(-c4ccc(CN5CCNCC5)cc4)ccc3c2C)cc(C)n1 [Example 7] | 0.17 | 0.0872 |
| Cc1cc(-c2[nH]c3cc(-c4ccc(N5CC[N+](CCN(C)C)(CCN(C)C)CC5)nc4)ccc3c2C)cc(C)n1 [Example 115, 1,1-bis(2-(dimethylamino)ethyl)-4-(5-(2-(2,6-dimethylpyridin-4-yl)-3-methyl-1H-indol-6-yl)pyridin-2-yl)piperazin-1-ium] | 0.394 | 0.189 |
| COc1ccc(-c2[nH]c3cc(-c4ccc(N5CCNCC5)nc4)ccc3c2C)cc1OC [Example 81] | 0.0344 | 0.758 |
| Cc1cc(-c2[nH]c3cc(-c4cccc(C(=O)N5CC[C@@H](N)C5)c4)ccc3c2C)cc(C)n1 [Example 121] | 0.134 | 0.112 |
| Cc1cc(-c2[nH]c3cc(-c4ccc(N5CCNCC5)nc4)cnc3c2C)cc(C)n1 [Example 149, 2-(2,6-dimethyl-4-pyridyl)-3-methyl-6-(6-piperazin-1-yl-3-pyridyl)-1H-pyrrolo[3,2-b]pyridine] | 1.26 | 0.188 |
| Cc1cc(-c2[nH]c3cc(C(=O)NC4CCNCC4)ccc3c2C)cc(C)n1 [Example 178, 2-(2,6-dimethylpyridin-4-yl)-3-methyl-N-(piperidin-4-yl)-1H-indole-6-carboxamide] | > 1 | 1.88 |
| Cc1cc(-c2[nH]c3cc(-c4ccc(N5CCNCC5)nc4)ncc3c2C)cc(C)n1 [Example 151] | 0.867 | 0.537 |
| Cc1cc(-c2[nH]c3cc(-c4ccc5[nH]c(C6CCNCC6)nc5c4)ccc3c2C)cc(C)n1 [Example 147, 5-[2-(2,6-dimethyl-4-pyridyl)-3-methyl-1H-indol-6-yl]-2-(4-piperidyl)-1H-benzimidazole] | > 1 | 1.35 |
| Cc1cc(-c2[nH]c3cc(-c4ccc(N5CCNCC5)nc4)ccc3c2C)cc(C#N)n1 [Example 77] | 0.0105 | 0.768 |
| Cc1cc(-c2[nH]c3cc(-c4cnn(C5CC6CCC(C5)N6)c4)ccc3c2C)cc(C)n1 (centres unmarked) [Example 184] | 0.0169 | 0.268 |
| Cc1cc(-c2[nH]c3cc(-c4ccc(C(=O)N5CCC(N)CC5)nc4)ccc3c2C)cc(C)n1 [Example 145, (4-aminopiperidin-1-yl)(5-(2-(2,6-dimethylpyridin-4-yl)-3-methyl-1H-indol-6-yl)pyridin-2-yl)methanone] | 0.0488 | 0.277 |
| Cc1cc(-c2[nH]c3cc(-c4ccn5ccnc5c4)ccc3c2C)cc(C)n1 [Example 57] | 0.2 | 0.306 |
| Cc1cc(-c2[nH]c3cc(-c4nnc(C5CCNCC5)o4)ccc3c2C)cc(C)n1 [Example 190, 2-[2-(2,6-dimethyl-4-pyridyl)-3-methyl-1H-indol-6-yl]-5-(4-piperidyl)-1,3,4-oxadiazole] | 0.016 | 0.055 |
| Cc1cc(-c2[nH]c3cc(-c4nc(N5CCNCC5)no4)ccc3c2C)cc(C)n1 [Example 188, 5-[2-(2,6-dimethyl-4-pyridyl)-3-methyl-1H-indol-6-yl]-3-piperazin-1-yl-1,2,4-oxadiazole] | 0.27 | 0.175 |
| Cc1cc(-c2[nH]c3cc(-c4ccc(S(=O)(=O)N5CCNCC5)cc4)ccc3c2C)cc(C)n1 [Example 68] | 0.324 | 0.0932 |
| Cc1c(-c2cnn(C)c2)[nH]c2cc(-c3ccc(N4CCNCC4)nc3)ccc12 [Example 87] | 2.18 | 0.583 |
| Cc1c(-c2cc(C)c3ncnn3c2)[nH]c2nc(C3CCNCC3)ccc12 [Example 153] | 0.108 | 1.58 |
| CNC(=O)CN1CCN(c2ccc(-c3ccc4c(C)c(-c5cc(C)nc(C)c5)[nH]c4c3)cn2)CC1 [Example 113, 2-(4-(5-(2-(2,6-dimethylpyridin-4-yl)-3-methyl-1H-indol-6-yl)pyridin-2-yl)piperazin-1-yl)-N-methylacetamide] | 0.0688 | 0.123 |
| Cc1cc(-c2[nH]c3cc(-c4ccc(N5CCNCC5)nc4)ccc3c2C)c2ccccc2n1 [Example 90] | 0.0298 | 0.753 |
| Cc1cc(-c2[nH]c3cc(-c4cnc(N5CCNCC5)nc4)ccc3c2C2CC2)cc(C)n1 [Example 67] | 0.003 | 0.199 |
| Cc1cc(-c2[nH]c3cc(-c4ccc(N5CCCNCC5)nc4)ccc3c2C)cc(C)n1 [Example 103, 6-(6-(1,4-diazepan-1-yl)pyridin-3-yl)-2-(2,6-dimethylpyridin-4-yl)-3-methyl-1H-indole] | 0.0351 | 0.0457 |
| Cc1cc(-c2[nH]c3cc(-c4ccc(N5CCN6CC(F)(F)C[C@H]6C5)nc4)ccc3c2C)cc(C)n1 [Example 144] | > 1 | 0.727 |

From patent publication US20250002471A1 (Gilead Sciences, Inc., priority 2020, published 2025)
